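48-hour exposure; five concentrations; linearly interpolated endpoints. TGI: concentration producing complete growth inhibition.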
What was measured:
Assay in all cases: growth of human tumour cells (NCI), 48 h
K-562 leukemia = tested on: K-562 leukemia
U251 CNS = tested on: U251 CNS
786-0 renal = tested on: 786-0 renal
MDA-N = tested on: MDA-N
IGROV1 ovarian = tested on: IGROV1 ovarian
EKVX NSCLC = tested on: EKVX NSCLC
COLO 205 colon = tested on: COLO 205 colon
M14 melanoma = tested on: M14 melanoma
SK-OV-3 ovarian = tested on: SK-OV-3 ovarian
SF-539 CNS = tested on: SF-539 CNS
NCI-H23 lung = tested on: NCI-H23 lung
RXF 393 renal = tested on: RXF 393 renal
UACC-257 melanoma = tested on: UACC-257 melanoma
UACC-62 melanoma = tested on: UACC-62 melanoma
A549 NSCLC = tested on: A549 NSCLC
NCI-H460 lung = tested on: NCI-H460 lung
SNB-19 CNS = tested on: SNB-19 CNS
HT29 colon = tested on: HT29 colon
NCI-H226 lung = tested on: NCI-H226 lung
TK-10 renal = tested on: TK-10 renal
HL-60(TB) leukemia = tested on: HL-60(TB) leukemia
BT-549 breast = tested on: BT-549 breast
KM12 colon = tested on: KM12 colon
OVCAR-5 ovarian = tested on: OVCAR-5 ovarian
MOLT-4 leukemia = tested on: MOLT-4 leukemia
HCC-2998 colon = tested on: HCC-2998 colon
SK-MEL-5 melanoma = tested on: SK-MEL-5 melanoma
NCI-H522 lung = tested on: NCI-H522 lung
SK-MEL-28 melanoma = tested on: SK-MEL-28 melanoma
SN12C renal = tested on: SN12C renal
LOX IMVI melanoma = tested on: LOX IMVI melanoma
SW-620 colon = tested on: SW-620 colon
OVCAR-4 ovarian = tested on: OVCAR-4 ovarian
MCF7 breast = tested on: MCF7 breast
HCT-116 colon = tested on: HCT-116 colon
OVCAR-8 ovarian = tested on: OVCAR-8 ovarian
SF-268 CNS = tested on: SF-268 CNS
CAKI-1 renal = tested on: CAKI-1 renal
ACHN renal = tested on: ACHN renal
DU-145 prostate = tested on: DU-145 prostate
OVCAR-3 ovarian = tested on: OVCAR-3 ovarian
SNB-75 CNS = tested on: SNB-75 CNS
UO-31 renal = tested on: UO-31 renal
MDA-MB-435 = tested on: MDA-MB-435
HS 578T breast = tested on: HS 578T breast
HOP-62 NSCLC = tested on: HOP-62 NSCLC
CCRF-CEM leukemia = tested on: CCRF-CEM leukemia
A498 renal = tested on: A498 renal
MDA-MB-231 breast = tested on: MDA-MB-231 breast
HOP-92 NSCLC = tested on: HOP-92 NSCLC
HCT-15 colon = tested on: HCT-15 colon
SF-295 CNS = tested on: SF-295 CNS
MALME-3M melanoma = tested on: MALME-3M melanoma
PC-3 prostate = tested on: PC-3 prostate
T-47D breast = tested on: T-47D breast
NCI/ADR-RES ovarian = tested on: NCI/ADR-RES ovarian
SK-MEL-2 melanoma = tested on: SK-MEL-2 melanoma

Measured: TGI

COC(=O)c1ccccc1C1CN=NC12Cc1cc3c(cc1C2=O)CCC3 (configuration not stated)
61.5 µM: HL-60(TB) leukemia
48.7 µM: SK-MEL-5 melanoma
> 100 µM: all other assays above

Reference: PubChem BioAssay (NCI)
